In assay [1] the target is human Cereblon WT GST-tagged protein (Homo sapiens (Human), UniProt Q96SW2). The assay is described as follows: CRBN-binding affinity, HTRF (CEREBLON BINDING kit, CISBIO). The settings on record: HTRF inhibitory activity. In a few lines:
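HTRF competition format: test compound displaces Thalidomide-Red from GST-tagged human Cereblon WT, detected with a Eu-labelled anti-GST antibody. Percent CRBN binding inhibition was derived from the 620 nm signal, normalized to solvent-control and protein-free blank wells.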
On the technique in general: Time-resolved FRET reads energy transfer from a long-lived donor to a nearby acceptor.

Assay [2] deals with IKZF1 (Homo sapiens (Human), UniProt Q13422+Q96SW2). The assay is described as follows: Western blot, substrate protein expression in hPBMC: IKZF1. The format is cell-based. The settings on record: for substrate protein remaining % IKZF1: hPBMC, compound 500 nM, 24 hours, Western blot. In a few lines:
(§1)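 hPBMC, 1×10^6 cells/mL, 24 h compound exposure; RIPA lysis, BCA protein assay, SDS-PAGE, NC membrane immunoblot. Densitometry vs internal control → % protein remaining; degradation % = 100% − remaining; DC50 = conc. at 50% of DMSO band signal.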

For assay [3], the target named is IKZF3 (Homo sapiens (Human), UniProt Q96SW2+Q9UKT9). The assay is described as follows: Western blot, substrate protein expression in hPBMC: IKZF3. It counts as cell-based. The settings on record: for substrate protein remaining % IKZF3: hPBMC, compound 500 nM, 24 hours, Western blot. In a few lines:
as §1

Assay [4] has as its target GSPT1 (Homo sapiens (Human), UniProt P15170+Q96SW2). The assay is described as follows: Western blot, substrate protein expression in hPBMC: GSPT1. The format is cell-based. As to conditions: for substrate protein remaining % GSPT1: hPBMC, compound 500 nM, 24 hours, Western blot; for concentration at which GSPT1 protein was clearly/significantly degraded (Western blot, FIG. 1): hPBMCs. An outline of the steps: as §1
On the technique in general: In western blotting, separated proteins are transferred to a membrane and probed.

IKZF3, sequence (Q9UKT9 whole entry): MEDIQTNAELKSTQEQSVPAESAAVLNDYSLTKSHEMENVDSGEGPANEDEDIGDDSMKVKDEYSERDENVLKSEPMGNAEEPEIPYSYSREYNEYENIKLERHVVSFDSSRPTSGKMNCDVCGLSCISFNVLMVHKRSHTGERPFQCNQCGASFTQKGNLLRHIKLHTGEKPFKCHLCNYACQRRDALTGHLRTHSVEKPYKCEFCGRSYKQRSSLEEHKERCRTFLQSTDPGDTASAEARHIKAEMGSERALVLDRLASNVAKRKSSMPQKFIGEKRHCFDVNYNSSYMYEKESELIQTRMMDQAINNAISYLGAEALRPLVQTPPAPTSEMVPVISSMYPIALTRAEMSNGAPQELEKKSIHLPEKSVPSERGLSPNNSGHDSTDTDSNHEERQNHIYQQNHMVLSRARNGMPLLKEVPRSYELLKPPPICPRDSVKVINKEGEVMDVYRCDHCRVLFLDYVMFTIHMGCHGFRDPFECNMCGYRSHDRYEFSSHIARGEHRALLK
IKZF3, sequence (Q96SW2 whole entry): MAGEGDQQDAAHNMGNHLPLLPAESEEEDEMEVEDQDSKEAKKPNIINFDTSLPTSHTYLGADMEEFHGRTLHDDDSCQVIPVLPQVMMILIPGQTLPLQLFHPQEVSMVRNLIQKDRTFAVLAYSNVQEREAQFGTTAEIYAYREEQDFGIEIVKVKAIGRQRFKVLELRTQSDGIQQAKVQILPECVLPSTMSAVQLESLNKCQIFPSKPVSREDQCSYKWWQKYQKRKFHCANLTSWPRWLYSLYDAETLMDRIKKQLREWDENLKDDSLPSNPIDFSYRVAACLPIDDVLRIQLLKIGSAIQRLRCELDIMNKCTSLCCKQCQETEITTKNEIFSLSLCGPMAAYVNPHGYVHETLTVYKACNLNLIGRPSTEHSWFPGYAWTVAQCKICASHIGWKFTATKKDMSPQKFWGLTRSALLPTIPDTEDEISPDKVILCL
IKZF3, sequence (Q16531 whole entry partner): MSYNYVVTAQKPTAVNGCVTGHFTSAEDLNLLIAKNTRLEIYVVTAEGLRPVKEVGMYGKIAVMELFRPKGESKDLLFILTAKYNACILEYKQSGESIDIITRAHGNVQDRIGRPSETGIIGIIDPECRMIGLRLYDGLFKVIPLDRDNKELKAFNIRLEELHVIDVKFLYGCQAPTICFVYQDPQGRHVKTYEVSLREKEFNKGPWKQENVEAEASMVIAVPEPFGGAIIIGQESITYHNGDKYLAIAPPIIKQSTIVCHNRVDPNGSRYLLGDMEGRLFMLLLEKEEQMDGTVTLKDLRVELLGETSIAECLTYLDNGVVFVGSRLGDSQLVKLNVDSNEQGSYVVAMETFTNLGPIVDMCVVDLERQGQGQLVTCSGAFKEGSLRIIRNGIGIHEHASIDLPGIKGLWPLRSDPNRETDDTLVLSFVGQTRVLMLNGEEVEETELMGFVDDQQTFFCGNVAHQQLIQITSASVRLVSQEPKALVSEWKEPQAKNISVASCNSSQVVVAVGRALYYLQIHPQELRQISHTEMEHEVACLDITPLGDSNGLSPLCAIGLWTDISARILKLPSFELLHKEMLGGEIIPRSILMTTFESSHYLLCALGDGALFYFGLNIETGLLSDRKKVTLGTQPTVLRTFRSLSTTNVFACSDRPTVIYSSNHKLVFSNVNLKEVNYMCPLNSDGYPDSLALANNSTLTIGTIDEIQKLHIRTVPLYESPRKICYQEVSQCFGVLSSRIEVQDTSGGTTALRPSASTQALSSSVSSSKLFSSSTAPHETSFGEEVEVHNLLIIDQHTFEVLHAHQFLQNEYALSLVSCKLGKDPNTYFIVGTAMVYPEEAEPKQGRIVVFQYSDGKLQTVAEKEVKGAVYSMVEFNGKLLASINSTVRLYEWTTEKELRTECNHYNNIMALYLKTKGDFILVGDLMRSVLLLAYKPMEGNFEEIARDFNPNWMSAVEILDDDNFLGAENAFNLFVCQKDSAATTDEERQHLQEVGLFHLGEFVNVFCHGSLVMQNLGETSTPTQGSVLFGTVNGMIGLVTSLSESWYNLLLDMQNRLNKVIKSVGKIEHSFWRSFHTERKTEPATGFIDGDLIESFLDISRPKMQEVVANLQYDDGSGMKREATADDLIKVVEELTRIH
human Cereblon WT GST-tagged protein, sequence (Q96SW2 whole entry): as the sequence (Q96SW2 whole entry) above
GSPT1, sequence (P15170 whole entry): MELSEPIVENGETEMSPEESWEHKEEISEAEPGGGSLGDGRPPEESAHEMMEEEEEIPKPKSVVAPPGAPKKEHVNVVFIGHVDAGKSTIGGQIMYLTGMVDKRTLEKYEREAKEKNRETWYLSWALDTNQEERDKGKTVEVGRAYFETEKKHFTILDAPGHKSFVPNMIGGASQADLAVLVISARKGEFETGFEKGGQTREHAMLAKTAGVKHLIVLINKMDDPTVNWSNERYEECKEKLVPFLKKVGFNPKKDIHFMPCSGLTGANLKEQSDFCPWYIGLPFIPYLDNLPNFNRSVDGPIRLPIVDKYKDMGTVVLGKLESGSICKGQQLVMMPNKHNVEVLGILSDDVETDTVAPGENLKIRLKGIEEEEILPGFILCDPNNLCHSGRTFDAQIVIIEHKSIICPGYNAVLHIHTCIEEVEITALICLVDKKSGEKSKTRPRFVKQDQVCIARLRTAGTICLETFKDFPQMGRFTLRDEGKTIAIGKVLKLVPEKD
GSPT1, sequence (Q96SW2 whole entry): as the sequence (Q96SW2 whole entry) above
GSPT1, sequence (Q16531 whole entry partner): as the sequence (Q16531 whole entry partner) above
IKZF1, sequence (Q13422 whole entry): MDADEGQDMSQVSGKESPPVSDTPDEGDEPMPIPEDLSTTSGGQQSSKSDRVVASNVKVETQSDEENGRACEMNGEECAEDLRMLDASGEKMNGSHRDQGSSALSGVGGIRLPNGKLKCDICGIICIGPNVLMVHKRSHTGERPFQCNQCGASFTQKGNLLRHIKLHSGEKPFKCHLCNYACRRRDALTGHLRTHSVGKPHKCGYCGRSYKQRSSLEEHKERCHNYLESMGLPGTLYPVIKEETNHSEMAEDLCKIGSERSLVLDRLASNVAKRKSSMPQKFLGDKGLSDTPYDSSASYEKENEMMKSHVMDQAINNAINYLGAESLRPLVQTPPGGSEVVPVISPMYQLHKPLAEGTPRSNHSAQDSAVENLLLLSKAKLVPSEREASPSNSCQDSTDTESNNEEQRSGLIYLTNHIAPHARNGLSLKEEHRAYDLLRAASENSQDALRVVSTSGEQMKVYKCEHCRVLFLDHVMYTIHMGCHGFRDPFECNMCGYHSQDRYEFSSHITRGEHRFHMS
IKZF1, sequence (Q96SW2 whole entry): as the sequence (Q96SW2 whole entry) above
IKZF1, sequence (Q16531 whole entry partner): as the sequence (Q16531 whole entry partner) above

Consider `O=C1CCC(N2Cc3cc(CN4CCN(C(c5ccccn5)c5ccccn5)CC4)c(F)cc3C2=O)C(=O)N1` (stereo not shown) [GT-04384, 3-(5-((4-(di(pyridin-2-yl)methyl)piperazin-1-yl)methyl)-6-fluoro-1-oxoisoindolin-2-yl)piperidine-2,6-dione], for which the IC50 (usually the midpoint of a concentration-inhibition curve) in assay [1] is 0.5 to 1 µM. Moreover, the “substrate protein remaining % IKZF1” value in assay [2] is on record as “B (B represents substrate protein remaining % > 50%)”. The “substrate protein remaining % IKZF3” value in assay [3] is listed as “B (B represents substrate protein remaining % > 50%)”. Moreover, in assay [4], the “substrate protein remaining % GSPT1” value is “A (A represents 0% ≤ substrate protein remaining % ≤ 50%)”.

Take `O=C1CCC(N2Cc3c(CN4CCN(C(c5ccccc5)c5ccncc5)CC4)cccc3C2=O)C(=O)N1` (stereo not shown) [GT-04945, 3-(1-oxo-4-((4-(phenyl(pyridin-4-yl)methyl)piperazin-1-yl)methyl)isoindolin-2-yl)piperidine-2,6-dione]: the IC50 in assay [1] was 0.5 to 1 µM. In addition, the “substrate protein remaining % IKZF1” value in assay [2] was “B (B represents substrate protein remaining % > 50%)”. In addition, the “substrate protein remaining % IKZF3” value in assay [3] was “B (B represents substrate protein remaining % > 50%)”. Besides, the “substrate protein remaining % GSPT1” value in assay [4] is “A (A represents 0% ≤ substrate protein remaining % ≤ 50%)”.

In assay [1], `O=C1CCC(N2Cc3c(CN4CCC(N(c5ccccc5)c5ccccn5)CC4)cccc3C2=O)C(=O)N1` (stereo not shown) [GT-04948, 3-(1-oxo-4-((4-(phenyl(pyridin-2-yl)amino)piperidin-1-yl)methyl)isoindolin-2-yl)piperidine-2,6-dione] gave a half-maximal inhibitory concentration (IC50) of 0.5 to 1 µM. Besides, the “substrate protein remaining % IKZF1” value in assay [2] is listed as “B (B represents substrate protein remaining % > 50%)”. Also, in assay [3], the “substrate protein remaining % IKZF3” value is on record as “B (B represents substrate protein remaining % > 50%)”. Besides, in assay [4], the “substrate protein remaining % GSPT1” value is reported as “A (A represents 0% ≤ substrate protein remaining % ≤ 50%)” and the “concentration at which GSPT1 protein was clearly/significantly degraded (Western blot, FIG. 1)” value is reported as less than 500 nM.

In turn, `O=C1CCC(N2Cc3c(CN4CCC(N(c5ccccc5)c5ccccc5)CC4)cccc3C2=O)C(=O)N1` (stereo not shown) [GT-04992, 3-(4-((4-(diphenylamino)piperidin-1-yl)methyl)-1-oxoisoindolin-2-yl)piperidine-2,6-dione] displayed an IC50 in assay [1] of less than 0.5 µM. In addition, the “substrate protein remaining % IKZF1” value in assay [2] is recorded as “B (B represents substrate protein remaining % > 50%)”. The “substrate protein remaining % IKZF3” value in assay [3] was “B (B represents substrate protein remaining % > 50%)”. Besides, the “substrate protein remaining % GSPT1” value in assay [4] is “A (A represents 0% ≤ substrate protein remaining % ≤ 50%)”.

Molecule `O=C1CCC(N2Cc3cc(CCCN4CCN(C(c5ccccc5)c5ccccc5)CC4)ccc3C2=O)C(=O)N1` (stereo not shown) [GT-05688, 3-(5-(3-(4-benzhydrylpiperazin-1-yl)propyl)-1-oxoisoindolin-2-yl)piperidine-2,6-dione] showed an IC50 in assay [1] of 1 to 1.9 µM. In addition, the “substrate protein remaining % IKZF1” value in assay [2] is “A (A represents 0% ≤ substrate protein remaining % ≤ 50%)”. Also, the “concentration at which IKZF1 protein was significantly degraded (Western blot, FIG. 1)” value in assay [2] (hPBMCs) is given as “below 50 nM”. Also, in assay [3], the “substrate protein remaining % IKZF3” value was “A (A represents 0% ≤ substrate protein remaining % ≤ 50%)”. The “concentration at which IKZF3 protein was significantly degraded (Western blot, FIG. 1)” value in assay [3] (hPBMCs) is “below 50 nM”. Further, the “substrate protein remaining % GSPT1” value in assay [4] was “B (B represents substrate protein remaining % > 50%)”.

In assay [1], `O=C1CCC(N2Cc3cc(C(=O)N4CCN(C(c5ccccc5)c5ccccc5)CC4)ccc3C2=O)C(=O)N1` (stereo not shown) [GT-05689, 3-(5-(4-benzhydrylpiperazine-1-carbonyl)-1-oxoisoindolin-2-yl)piperidine-2,6-dione] gave an IC50 of 0.5 to 1 µM. Besides, the “substrate protein remaining % IKZF1” value in assay [2] is “B (B represents substrate protein remaining % > 50%)”. The “substrate protein remaining % IKZF3” value in assay [3] is “B (B represents substrate protein remaining % > 50%)”. Also, in assay [4], the “substrate protein remaining % GSPT1” value was “A (A represents 0% ≤ substrate protein remaining % ≤ 50%)” and the “concentration at which GSPT1 protein was clearly/significantly degraded (Western blot, FIG. 1)” value is “below 50 nM”.

In assay [1], `O=C1CCC(N2Cc3c(ccc(CN4CCN(C(c5ccccn5)c5ccccn5)CC4)c3F)C2=O)C(=O)N1` (stereo not shown) [GT-05713, 3-(5-((4-(di(pyridin-2-yl)methyl)piperazin-1-yl)methyl)-4-fluoro-1-oxoisoindolin-2-yl)piperidine-2,6-dione] returned an IC50 of 0.5 to 1 µM. The “substrate protein remaining % IKZF1” value in assay [2] was “B (B represents substrate protein remaining % > 50%)”. Further, the “substrate protein remaining % IKZF3” value in assay [3] was “B (B represents substrate protein remaining % > 50%)”. Also, the “substrate protein remaining % GSPT1” value in assay [4] is on record as “A (A represents 0% ≤ substrate protein remaining % ≤ 50%)”.

For `O=C1CCC(N2C(=O)c3ccc(CN4CC5CCC4CN5C(c4ccccc4)c4ccccc4)cc3C2=O)C(=O)N1` (stereo not shown) [GT-05730, 5-((5-benzhydryl-2,5-diazabicyclo[2.2.2]octan-2-yl)methyl)-2-(2,6-dioxopiperidin-3-yl) isoindoline-1,3-dione], the IC50 in assay [1] was in the range of 1 to 1.9 µM. In assay [2], the “substrate protein remaining % IKZF1” value is “B (B represents substrate protein remaining % > 50%)”. Moreover, in assay [3], the “substrate protein remaining % IKZF3” value is given as “B (B represents substrate protein remaining % > 50%)”. In addition, the “substrate protein remaining % GSPT1” value in assay [4] is reported as “A (A represents 0% ≤ substrate protein remaining % ≤ 50%)”.

`O=C1CCC(N2Cc3cc(CN4C5CC4CN(C(c4ccccc4)c4ccccc4)C5)c(F)cc3C2=O)C(=O)N1` (stereo not shown) [GT-05737, 3-(5-((3-benzhydryl-3,6-diazabicyclo[3.1.1]heptan-6-yl)methyl)-6-fluoro-1-oxoisoindolin-2-yl)piperidine-2,6-dione]: the half-inhibitory concentration (IC50) in assay [1] lay in the range of 0.5 to 1 µM. In addition, the “substrate protein remaining % IKZF1” value in assay [2] is “B (B represents substrate protein remaining % > 50%)”. The “substrate protein remaining % IKZF3” value in assay [3] was “B (B represents substrate protein remaining % > 50%)”. Also, in assay [4], the “substrate protein remaining % GSPT1” value is “A (A represents 0% ≤ substrate protein remaining % ≤ 50%)”.

In turn, `O=C1CCC(N2Cc3cc(CN4CCCN(C(c5ccccc5)c5ccccc5)CC4)c(F)cc3C2=O)C(=O)N1` (stereo not shown) [GT-05738, 3-(5-((4-benzhydryl-1,4-diazepan-1-yl)methyl)-6-fluoro-1-oxoisoindolin-2-yl)piperidine-2,6-dione] came in with an IC50 in assay [1] of 1 to 1.9 µM. In addition, in assay [2], the “substrate protein remaining % IKZF1” value is reported as “B (B represents substrate protein remaining % > 50%)”. In addition, the “substrate protein remaining % IKZF3” value in assay [3] is “B (B represents substrate protein remaining % > 50%)”. In assay [4], the “substrate protein remaining % GSPT1” value is listed as “A (A represents 0% ≤ substrate protein remaining % ≤ 50%)”.

In assay [1], `O=C1CCC(N2Cc3cc(CC4CCN(C(c5ccccc5)c5ccccc5)CC4)ccc3C2=O)C(=O)N1` (stereo not shown) [GT-05744, 3-(5-((1-benzhydrylpiperidin-4-yl)methyl)-1-oxoisoindolin-2-yl)piperidine-2,6-dione] returned an IC50 of less than 0.5 µM. In addition, the “substrate protein remaining % IKZF1” value in assay [2] is “B (B represents substrate protein remaining % > 50%)”. In addition, the “substrate protein remaining % IKZF3” value in assay [3] was “B (B represents substrate protein remaining % > 50%)”. Further, in assay [4], the “substrate protein remaining % GSPT1” value was “A (A represents 0% ≤ substrate protein remaining % ≤ 50%)”.

`O=C1CCC(N2Cc3cc(C(=O)N4CCN(C(c5ccccc5)c5ccccc5)CC4)cc(F)c3C2=O)C(=O)N1` (stereo not shown) [GT-05850, 3-(5-(4-benzhydrylpiperazine-1-carbonyl)-7-fluoro-1-oxoisoindolin-2-yl)piperidine-2,6-dione] gave an IC50 in assay [1] of 1 to 1.9 µM. In addition, in assay [2], the “substrate protein remaining % IKZF1” value was “A (A represents 0% ≤ substrate protein remaining % ≤ 50%)”. Also, the “substrate protein remaining % IKZF3” value in assay [3] is “B (B represents substrate protein remaining % > 50%)”. For the same molecule, in assay [4], the “substrate protein remaining % GSPT1” value was “A (A represents 0% ≤ substrate protein remaining % ≤ 50%)”.

(Values after patent publication US20250320193A1, “OXOISOINDOLINYL SUBSTITUTED PIPERIDINEDIONE DERIVATIVE AND USE THEREOF” (GLUETACS THERAPEUTICS (SHANGHAI) CO., LTD., priority 2022, published 2025).)
